Data set [1] can be described thus: solubility in water and wettability of the crystalline form. The format is physicochemical.
A further data set has as its target PDE V (Homo sapiens, UniProt O76074). Description: PDE V inhibition. It is filed as biochemical.
Data set [2] can be described thus: absorption and bioavailability tests in animals. The format is in vivo.

The results in this text go back to patent publication US20090074869A1, “PHARMACEUTICAL FORMULATIONS” (Schering Corporation, priority 2003, published 2009).

For the compound `CCn1c(=O)c2c(nc(N[C@@H]3CCC[C@H]3O)n2Cc2ccc(OC)c(Br)c2)n(CCO)c1=O` [7-[(3-Bromo-4-methoxyphenyl)methyl]-1-ethyl-3,7-dihydro-8-[[(1R,2R)-2-hydroxycyclopentyl]amino]-3-(2-hydroxyethyl)-1H-purine-2,6-dione], in data set [1], the solubility in water entry is “poor”. The wettability entry in data set [1] (crystalline form) is “poor”. Further, at PDE V, the “effectiveness as a PDE V inhibitor” value is given as “particularly effective” and the “specificity for PDE isozyme” value was “specificity for the PDE V isozyme”. The “absorption from the gastrointestinal tract” value in data set [2] (in vivo) was “slow”. Moreover, the bioavailability result in data set [2] (tests conducted so far in animals) is on record as “low”.
